Data from ChEMBL document CHEMBL1153159, “Oxime derivatives related to AP18: Agonists and antagonists of the TRPA1 receptor” (Bioorg Med Chem Lett, 2010).

How the values were obtained:
Assay type in all cases: functional, cell-based
[1] = biological target: T1, Transient receptor potential cation channel subfamily A member 1 (Homo sapiens, UniProt O75762); assay: Agonist activity at human TRPA1 expressed in HEK293 cells assessed as [45]Ca2+ influx by microbeta plate count
[2] = biological target: T1, Transient receptor potential cation channel subfamily A member 1; assay: Agonist activity at human TRPA1 expressed in HEK293 cells assessed as [45]Ca2+ influx by microbeta plate count relative to cinnamaldehyde
[3] = biological target: T1, Transient receptor potential cation channel subfamily A member 1; assay: Antagonist activity at human TRPA1 expressed in HEK293 cells assessed as [45]Ca2+ influx by microbeta plate count
[4] = biological target: T1, Transient receptor potential cation channel subfamily A member 1; assay: Antagonist activity at human TRPA1 expressed in HEK293 cells assessed as inhibition of cinnamaldehyde-induced [45]Ca2+ influx by microbeta plate count

T1 sequence (O75762 whole entry): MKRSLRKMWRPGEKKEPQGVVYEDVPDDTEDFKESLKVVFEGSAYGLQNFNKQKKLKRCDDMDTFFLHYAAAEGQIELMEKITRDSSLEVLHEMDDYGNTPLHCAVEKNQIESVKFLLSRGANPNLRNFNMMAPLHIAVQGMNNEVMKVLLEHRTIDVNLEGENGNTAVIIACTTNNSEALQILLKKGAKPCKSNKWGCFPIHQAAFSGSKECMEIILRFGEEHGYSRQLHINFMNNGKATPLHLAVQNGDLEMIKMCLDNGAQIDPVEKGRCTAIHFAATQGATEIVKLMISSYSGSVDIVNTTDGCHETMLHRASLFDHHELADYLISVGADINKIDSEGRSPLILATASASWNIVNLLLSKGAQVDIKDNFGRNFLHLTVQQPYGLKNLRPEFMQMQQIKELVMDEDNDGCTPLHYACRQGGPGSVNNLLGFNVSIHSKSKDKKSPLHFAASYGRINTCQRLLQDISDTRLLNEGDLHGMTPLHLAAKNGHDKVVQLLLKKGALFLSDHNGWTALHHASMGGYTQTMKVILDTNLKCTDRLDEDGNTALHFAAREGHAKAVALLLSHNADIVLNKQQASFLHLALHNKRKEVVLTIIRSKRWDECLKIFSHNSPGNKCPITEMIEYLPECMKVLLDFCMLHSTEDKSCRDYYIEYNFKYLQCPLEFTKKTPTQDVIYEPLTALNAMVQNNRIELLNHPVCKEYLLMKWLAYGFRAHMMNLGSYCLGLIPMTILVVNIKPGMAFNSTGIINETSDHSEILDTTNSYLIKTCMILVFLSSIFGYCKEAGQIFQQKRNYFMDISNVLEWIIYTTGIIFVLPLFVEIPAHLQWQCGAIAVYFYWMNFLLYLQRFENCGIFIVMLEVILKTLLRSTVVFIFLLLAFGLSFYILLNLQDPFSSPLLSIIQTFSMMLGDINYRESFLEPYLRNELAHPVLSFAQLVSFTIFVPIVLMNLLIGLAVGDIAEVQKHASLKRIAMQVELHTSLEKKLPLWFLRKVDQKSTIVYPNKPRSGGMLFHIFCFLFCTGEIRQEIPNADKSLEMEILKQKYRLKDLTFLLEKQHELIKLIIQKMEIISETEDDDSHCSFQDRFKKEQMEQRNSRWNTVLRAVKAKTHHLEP

Row | EC50 [1] | Efficacy [2] | IC50 [3] | KB [4] | SMILES
1 | 11.5 µM | 0.54 |  |  | CC(/C=C/c1ccc2c(c1)OCO2)=N\O
2 |  | 0 |  |  | CC(=C\c1ccccc1Cl)/C(C)=N/O
3 |  | 0.21 |  |  | CC(/C=C/c1cccc(Cl)c1)=N/O
4 | 27.6 µM | 0.66 |  |  | CC(/C=C/c1ccc(Cl)cc1)=N\O
5 | 9.4 µM | 0.85 |  |  | O/N=C\C=C\c1ccc(Cl)cc1
6 | 63.1 µM | 0.85 |  |  | CC(/C=C/c1cccc(Cl)c1)=N\O
7 |  | 0 |  |  | O/N=C/C=C/c1ccccc1
8 | 15.9 µM | 0.87 |  |  | CN(C)c1ccc(/C=C/C=N/O)cc1
9 |  | 0.46 |  |  | O/N=C/C=C/c1ccc(Cl)cc1
10 |  | 0 | 2.8 µM | 1.26 µM | CC(=C\c1ccc(Cl)cc1)/C(C)=N/O [AP18 5]
11 | 69.4 µM | 0.18 |  |  | CC(/C=N/O)=C\c1ccccc1
12 | 14.4 µM | 0.84 |  |  | CC(=C\c1cccc(C)c1)/C(C)=N/O
13 |  | 0.15 |  |  | CC(/C=N/O)=C\c1ccc(C(C)(C)C)cc1
14 |  | 0.13 |  |  | O/N=C/C=C/c1ccc(C(F)(F)F)cc1
15 |  | < 0.1 |  |  | NC(/C=C/c1cc(C(F)(F)F)cc(C(F)(F)F)c1)=N\O
16 | 46.1 µM | 0.23 |  |  | COc1ccc(/C=C(C)/C(C)=N/O)cc1
17 |  | 0 |  |  | CC(=C\c1cccc([N+](=O)[O-])c1)/C(C)=N/O
18 |  | 0 | 2.7 µM | 1.91 µM | CC(=C\c1ccccc1)/C(C)=N/O
19 | 96.6 µM | 0.27 |  |  | CC(/C=C/c1ccccc1)=N\O

Row | SMILES | EC50 [1] | Efficacy [2] | IC50 [3] | KB [4]
20 | O=C/C=C/c1ccccc1 [CINNAMALDEHYDE] | 51.4 µM |  |  | 
